{"source": "patent US20260191818A1", "about": "(University of South Carolina, priority 2022, published 2026)", "format_in_all_cases": "in vivo, CD2F1 mice", "key": {"[1]": {"tested_on": "C26 tumor-bearing mice", "test": "C26 tumor-bearing mice given 5FU (cancer and chemotherapy-induced cachexia): body, tumor and tissue weights, food intake", "description": "Male (n=20) CD2F1 (CD2F1) hybrid mice were purchased from Charles River Laboratory (Raleigh, NC) at 10 weeks of age. Mice arrived at our facilities and were given AlN76 diet and allowed to acclimate to the new facilities and purified diet for 4 weeks. Mice were kept in ventilated cages (5 per cage), on a 12:12 h light/dark cycle, in a humidity and temperature control room (~22° C.) and given ad libitum access to water and food. Animal handling and experiments were performed to minimize pain and discomfort. […] Control mice were non-tumor-bearing mice given PBS i.p. and propylene glycol p.o. as vehicle controls. Body weights were measured daily. Food weights per cage were measured daily and average food intake was calculated by the difference in food weight between days. […] Hind limb muscles and select organs were excised, weighed, and snap frozen in liquid nitrogen while mice were under sedation (2% Isoflurane, 2 L/min O2). All procedures involving animals were reviewed and approved by the Institutional Animal Care and Usage Committee (IACUC) at the University of South Carolina in accordance with the American Association for Laboratory Animal Science. C26 (colon 26 adenocarcinoma) cells were gifted from Dr. Andrea Bonetto's laboratory and grown in complete DMEM (10% fetal bovine serum, 1% penicillin/streptomycin). Cells were split at 70% confluency and passage 3 was used for cell implantation. On Day 0, CD2F1 mice were given a subcutaneous injection of 1×10^6 C26 cells in the subscapular area as previously described. See, Bonetto, A., et al., The Colon-26 Carcinoma Tumor-bearing Mouse as a Model for the Study of Cancer Cachexia. J Vis Exp, 2016(117). Tumors were palpable at Day 8 in all C26 tumor-bearing mice. […] VWR; CAS #:51-21-8) was solubilized in warmed phosphate buffered saline (PBS) at 3.0 mg/mL, sterile filtered with a 0.2 μm filter and administered at the beginning of the light cycle (0700) via i.p. injection to mice with established tumor (day 11 after C26 implantation). […] Cancer Biol Ther, 2022. 23(1): p. 1-15; and […]., et al., The Acute Effects of 5 Fluorouracil on Skeletal Muscle Resident and Infiltrating Immune Cells in Mice. […] Data were analyzed using Prism 8 statistical software (GraphPad Software, CA, USA). […] The healthy controls are shown as a reference point but were not included in statistical analysis. Additionally, the C26 alone group was not included in analysis, but is shown as a reference point for tumor growth without chemotherapy intervention. Data are presented as the mean±SEM and the level of significance was set up at p<0.05."}, "[2]": {"tested_on": "P62, LC3B, Parkin, BNIP3", "test": "Western blot of rectus femoris, autophagy and mitophagy proteins", "settings": "C26+5FU+Quer vs C26+5FU", "description": "Protein isolation and western blotting was completed similar to what has been previously described. See, Sougiannis, A. T., et al., Impact of weight loss and partial weight regain on immune cell and inflammatory markers in adipose tissue in male mice. J Appl Physiol (1985), 2020. 129(4): p. 909-919. The rectus femoris (RF) was teased from the other quadriceps muscles, cut in half (proximal/distal), snap frozen in liquid nitrogen, and stored at −80° C. The distal RF was homogenized in Mueller Buffer (50 mM Hepes, 0.1% Triton-x, 4 mM EGTA, 10 mM EDTA, 15 mM Na4P207, 100 mM β-glycerophosphate, 25 mM NaF, and 5 mM NaVO4, with protease inhibitor cocktail) using a bead homogenizer at 4° C. Samples were centrifuged and the supernatant was collected and diluted with a diluent buffer (50% Glycerol, 50 mM Na4P2O7, 2.5 mM EGTA, and 1 mM β-mercaptoethanol with protease inhibitor cocktail). […] Between 10-50 μg of muscle protein homogenate was separated via SDS-PAGE and transferred to a PVDF membrane. Membranes were stained with Ponceau Red to confirm even loading and transfer efficiency. Membranes were then washed with tris buffered saline with 0.1% Tween (TBST) before blocking for 1 h at room temp with 5% milk TBST. Membranes were then incubated in primary anti-body (Table 1, see FIG. 8) overnight at 4° C. under gentle agitation. Membranes were then washed 3×5 min and incubated with the appropriate (anti-mouse or rabbit) HRP-linked secondary in 5% milk TBST for 1 h at room temperature. After a final 3×5 min wash membranes were incubated in chemiluminescent HRP substrate before visualization with a Syngene G:box. Images were then scanned, and relative protein expression was determined with ImageJ. Investigator was blinded to sample loading scheme and images were cropped after analysis for representation. All samples (full Ns) were run together for each protein. Dotted lines indicate where gels were cropped."}, "[3]": {"tested_on": "IL-6", "test": "Plasma interleukin-6 ELISA", "settings": "C26+5FU+Quer vs C26+5FU", "description": "Blood was collected retro orbitally prior to euthanasia while the mice were anesthetized. Whole blood was collected and put in an EDTA-coated tubes and store on ice prior to centrifugation (3,000 g at 4° C. for 10 min) for plasma collection. A commercially available IL-6 (SEQ ID NO: 9) enzyme-linked immunosorbent assay (ELISA) kit was obtained from BioLegend (San Diego, CA, USA). Briefly, a Costar clear 96-well plate (Corning, NY, USA) was coated with IL-6 (SEQ ID NO: 9) capture antibody and allowed to incubate overnight. The plate was then blocked with assay diluent buffer, and IL-6 (SEQ ID NO: 9) standards and plasma samples were added to the plate. Wells were then washed and detection antibody was incubated in each well for 1 h. The wells were again washed and then incubated with avidin horseradish peroxidase reagent. After several washes, 3,3′,5,5′-tetramethylbenzidine substrate was added, and the reaction was developed for 20 min. The reaction was stopped with sulfuric acid, and absorbance was measured."}}}
{"smiles": "O=c1c(O)c(-c2ccc(O)c(O)c2)oc2cc(O)cc(O)c12", "note": "[quercetin, 3,4,5,7-pentahydroxylflavone]", "values": [{"measurement": "greater EDL weight", "setting": "[1]; C26+5FU+Quer vs C26+5FU, p=0.039", "value": 23.7, "unit": "%"}, {"measurement": "greater gonadal fat pad weight", "setting": "[1]; C26+5FU+Quer vs C26+5FU, p=0.04", "value": 50.0, "unit": "%"}, {"measurement": "greater gastrocnemius weight", "setting": "[1]; C26+5FU+Quer vs C26+5FU, p=0.055", "value": 13.9, "unit": "%"}, {"measurement": "other measured muscle weights", "setting": "[1]; C26+5FU+Quer vs C26+5FU, p=0.09-0.15", "value": "did not achieve statistically significant differences"}, {"measurement": "greater RF (rectus femoris) weight", "setting": "[1]; C26+5FU+Quer vs C26+5FU, quercetin 50 mg/kg p.o., p=0.02", "value": 14.4, "unit": "%"}, {"measurement": "impact on body weight loss", "setting": "[1]; mice given 5FU 30 mg/kg lean mass i.p., quercetin 50 mg/kg p.o. vs propylene glycol, daily from Day 11", "value": "no apparent impact"}, {"measurement": "change in LC3b expression", "setting": "[2]; no observed difference, p=0.2", "value": "−33.4", "unit": "%"}, {"measurement": "change in P62 expression", "setting": "[2]; no observed difference, p=0.20", "value": "−33.4", "unit": "%"}, {"measurement": "change in BNIP3 expression", "setting": "[2]; significant increase, p=0.024", "value": 555, "unit": "%"}, {"measurement": "plasma IL-6", "setting": "[3]", "value": "did not appear that quercetin decreased"}]}
